In patent publication US10543215B2, “Combination therapy of cardiac myosin activator and sinus node if current inhibitor” (AMGEN INC., priority 2015, dated 2020):
Values joined by “and” are separate entries in the source; they are usually repeats but may differ in a detail not shown here. Identical values can stand only once.

Test system: conscious telemetered beagle dogs
Experiment: Left-ventricular hemodynamic, mechanical and timing indices by radio-telemetry before and during IV OM or vehicle, on repeated oral IVA or placebo
Type: in vivo, beagle dog
Description: Healthy male beagle dogs (n=7) instrumented with radio-telemetry units providing continuous single-lead electrocardiogram (ECG), as well as systemic (arterial, AoP) and left-ventricular (LVP) pressure signals were used for this study. Following sling acclimation, the animals were assigned to receive repeated oral (via gavage) treatments with either Ivabradine (IVA, 5 mg/kg bid) or a volume-matched placebo-control (sterile water, CTRL) for 5 days, administered at a dose volume of 10 mL/kg, in a cross over design.
The animals were sling-restrained and were subjected to acute intravenous administration of either sterile water (VEH, on Days 4 and 11 of dosing) or Omecamtiv Mecarbil (OM, on Days 5 and 12 of dosing). OM treatments were performed over a 3-hour infusion duration, following a dose-escalation design targeting plasma concentrations of 600 and 1000 ng/mL (each over 90 minutes, with a 30 minute loading infusion followed by a 60 minute maintenance infusion) for a cumulative dose of 5.293 mg/kg (as shown in Table A below). The IV vehicle treatments were time- and volume-matched.
Telemetered data were collected continuously for at least 90 minutes prior to and during dosing, as well as for at least 20 hours post-dose. The LVP and ECG signals were digitized at a sampling rate of at least 1000 Hz. The data were analyzed for heart rate (HR) and left-ventricular hemodynamic/mechanical indices that were obtained from the pressure waveform, including mean systolic (MSP) and end-diastolic (filling, EDP) pressures, the peak rates of pressure change during systole/diastole (dP/dtmax/min), as well as the time-constant of relaxation (tau) and a contractility index (CI: dP/dtmax normalized by the pressure at dP/dtmax). The data were also analyzed for systolic and diastolic intervals, including the estimated durations of the systolic ejection (SET), contraction (CT), active relaxation (RT) and filling intervals (FT), as well as the systolic-to-diastolic interval ratio (S/D: SET/RT+FT), which were derived from the left-ventricular pressure waveform.
The left-ventricular indices were evaluated only in the sling-restrained animals before and during IV treatment with OM or vehicle. Cardiovascular responses at each dose level were monitored for up to 90 minutes, i.e., over 3 hours total (during IV dosing of VEH and OM on Days 4, 5, 11, and 12 in the dose administration paradigm). Overall, in-sling cardiovascular data are reported at the following pre-determined/targeted time points: prior to dosing (i.e., at baseline, PRE) and approximately at the end of each infusion period (i.e., up to 4 time points during dosing, D1 to D4). Signals were analyzed continuously in 5-minute epochs, with pre-administration (i.e., PRE) values representing the overall mean over at least 5-epochs (i.e., 25 minutes) taken immediately prior to the onset of dosing, while during-dosing values reflect 5-minute averages (i.e., 1 epoch) taken prior to the (estimated) termination of each infusion. Data are presented as both means with standard deviations in summarizing tables/figure; beat-to-beat plots against heart rate are part of the study file.

[1] = D1, end of 30-min loading infusion, target OM 600 ng/mL
[2] = D2, end of 60-min maintenance infusion, target OM 600 ng/mL
[3] = D3, end of 30-min loading infusion, target OM 1000 ng/mL
[4] = D4, end of 60-min maintenance infusion, target OM 1000 ng/mL
[5] = PRE, before IV dosing (baseline)

COC(=O)N1CCN(Cc2cccc(NC(=O)Nc3ccc(C)nc3)c2F)CC1 [OM, methyl 4-(2-fluoro-3-(3-(6-methylpyridin-3-yl)ureido)benzyl)piperazine-1-carboxylate]
CT % vs. PRE [1]: −3%
CT (contraction time) [1]: 65.9 ms
EDP % vs. PRE [1]: −24%
EDP (left-ventricular end-diastolic pressure) [1]: 9.8 mmHg
FT % vs. PRE [1]: 23%
FT (filling time) [1]: 425 ms
HR % vs. PRE [1]: −14%
HR (heart rate) [1]: 86 bpm
MSP % vs. PRE [1]: −2%
MSP (left-ventricular mean systolic pressure) [1]: 127 mmHg
RT % vs. PRE [1]: 13%
RT (relaxation time) [1]: 104 ms
S/D % vs. PRE [1]: 18%
S/D (systolic to diastolic ratio, SET/RT + FT) [1]: 0.41
SET % vs. PRE [1]: 33%
SET (systolic ejection time) [1]: 207 ms
Tau % vs. PRE [1]: 19 ± 3%
Tau (left-ventricular relaxation time-constant) [1]: 36.7 ± 3.6 ms
Vmax % vs. PRE [1]: 3 ± 1%
Vmax (estimated maximal velocity of myocardial contractile-element shortening) [1]: 36.0 ± 1.7 s⁻¹
dP/dtmax % vs. PRE [1]: −6%
dP/dtmax (peak rate of LV pressure change during systole) [1]: 2,243 mmHg/s
dP/dtmin % vs. PRE [1]: −12%
dP/dtmin (peak rate of LV pressure change during diastole) [1]: −1,910 mmHg/s
CT % vs. PRE [2]: −2%
CT (contraction time) [2]: 66.7 ms
EDP % vs. PRE [2]: −33%
EDP (left-ventricular end-diastolic pressure) [2]: 8.5 mmHg
FT % vs. PRE [2]: 2%
FT (filling time) [2]: 321 ms
HR % vs. PRE [2]: 0%
HR (heart rate) [2]: 99 bpm
MSP % vs. PRE [2]: 0%
MSP (left-ventricular mean systolic pressure) [2]: 130 mmHg
RT % vs. PRE [2]: 20%
RT (relaxation time) [2]: 110 ms
S/D (systolic to diastolic ratio, SET/RT + FT) [2]: 0.5
SET (systolic ejection time) [2]: 214 ms
Tau % vs. PRE [2]: 33 ± 5%
Tau (left-ventricular relaxation time-constant) [2]: 41.1 ± 4.7 ms
Vmax % vs. PRE [2]: 7 ± 2%
Vmax (estimated maximal velocity of myocardial contractile-element shortening) [2]: 37.2 ± 1.6 s⁻¹
dP/dtmax % vs. PRE [2]: −1±4% and −1%
dP/dtmax (peak rate of LV pressure change during systole) [2]: 2,356 mmHg/s
dP/dtmin % vs. PRE [2]: −19%
dP/dtmin (peak rate of LV pressure change during diastole) [2]: −1,759 mmHg/s
CT % vs. PRE [3]: −1%
CT (contraction time) [3]: 67.0 ms
EDP % vs. PRE [3]: −13%
EDP (left-ventricular end-diastolic pressure) [3]: 10.8 mmHg
FT % vs. PRE [3]: −27%
FT (filling time) [3]: 251 ms
HR % vs. PRE [3]: 11%
HR (heart rate) [3]: 112 bpm
MSP % vs. PRE [3]: 0%
MSP (left-ventricular mean systolic pressure) [3]: 130 mmHg
RT % vs. PRE [3]: 24%
RT (relaxation time) [3]: 114 ms
S/D % vs. PRE [3]: 73%
S/D (systolic to diastolic ratio, SET/RT + FT) [3]: 0.60
SET % vs. PRE [3]: 34%
SET (systolic ejection time) [3]: 208 ms
Tau % vs. PRE [3]: 53 ± 7%
Tau (left-ventricular relaxation time-constant) [3]: 47.6 ± 6.5 ms
Vmax % vs. PRE [3]: 2 ± 2%
Vmax (estimated maximal velocity of myocardial contractile-element shortening) [3]: 35.6 ± 2.0 s⁻¹
dP/dtmax % vs. PRE [3]: −3%
dP/dtmax (peak rate of LV pressure change during systole) [3]: 2,319 mmHg/s
dP/dtmin % vs. PRE [3]: −26%
dP/dtmin (peak rate of LV pressure change during diastole) [3]: −1,608 mmHg/s
CT % vs. PRE [4]: 5%
CT (contraction time) [4]: 71.0 ms
EDP % vs. PRE [4]: 46%
EDP (left-ventricular end-diastolic pressure) [4]: 17.8 mmHg
FT % vs. PRE [4]: −71%
FT (filling time) [4]: 85 ms
HR (heart rate) [4]: 162 bpm
MSP % vs. PRE [4]: −15%
MSP (left-ventricular mean systolic pressure) [4]: 111 mmHg
RT % vs. PRE [4]: 1%
RT (relaxation time) [4]: 93 ms
S/D (systolic to diastolic ratio, SET/RT + FT) [4]: 1.06
SET % vs. PRE [4]: 5%
SET (systolic ejection time) [4]: 162 ms
Tau (left-ventricular relaxation time-constant) [4]: 54.7 ± 9.7 ms
Vmax % vs. PRE [4]: −19±8%
Vmax (estimated maximal velocity of myocardial contractile-element shortening) [4]: 28.4 ± 3.4 s⁻¹
dP/dtmax % vs. PRE [4]: −23%
dP/dtmax (peak rate of LV pressure change during systole) [4]: 1,844 mmHg/s
dP/dtmin % vs. PRE [4]: −41%
dP/dtmin (peak rate of LV pressure change during diastole) [4]: −1,288 mmHg/s
CT (contraction time) [5]: 67.9 ± 0.7 ms
EDP (left-ventricular end-diastolic pressure) [5]: 12.3 mmHg
FT (filling time) [5]: 370 ± 50 ms
HR (heart rate) [5]: 102 bpm
MSP (left-ventricular mean systolic pressure) [5]: 131 mmHg
RT (relaxation time) [5]: 92 ± 3 ms
S/D (systolic to diastolic ratio, SET/RT + FT) [5]: 0.36
SET (systolic ejection time) [5]: 156 ± 7 ms
Tau (left-ventricular relaxation time-constant) [5]: 30.8 ± 2.8 ms
Vmax (estimated maximal velocity of myocardial contractile-element shortening) [5]: 34.9 ± 1.6 s⁻¹
dP/dtmax (peak rate of LV pressure change during systole) [5]: 2,401 mmHg/s
dP/dtmin (peak rate of LV pressure change during diastole) [5]: −2,167 mmHg/s
